Data on 1 compound can be found in patent publication US6726919B2, “Injectable dispersion of propofol” (RTP Pharma, Inc., priority 2000, dated 2004).

The structures appear in SMILES notation. Where a name gives a salt, the structure may show the parent alone. Read-outs that look alike come from different tables or passages of the source.

For the data set, the system named is human whole blood. It counts as cell-based. The note with it: both, 1 h. The protocol: In-vitro evaluation of the hemolytic influence of the preparations of this invention on human whole blood is determined as a further guide to selecting formulations with a low tendency to produce irritation around the site of injection. The hemolytic potential of a formulation on blood is evaluated by an assay of erythrocyte cytoplasmic marker enzyme, lactate dehydrogenase (LDH) which escapes from the leaky or ruptured erythrocytes into the plasma compartment of the blood. For the assay, blood is obtained from male or female Caucasian human volunteers of 18 to 65 years of age and stabilized with sodium heparin. A test formulation is mixed with an equal volume of human whole blood and incubated at 37° C. for about 1 hour. The mixture is then held at ambient temperature for 30 minutes followed by centrifugation at 1500 rpm for 10 min. The level of LDH in the supernatant is determined according to protocols known in the art. An upper limit titre is determined by measuring the LDH levels resulting from hemolysis by amiodarone hydrochloride, a compound known to result in vein irritation upon venous injection in clinical settings (PDR 1999, p. 3289). Amiodarone hydrochloride IV solution, when tested at 50 mg/mL and after dilution with 5% aqueous dextrose to 1.8 mg/mL can result in LDH values of about 8000 IU/L and about 700 IU/L, respectively.

As for `CCCCc1oc2ccccc2c1C(=O)c1cc(I)c(OCCN(CC)CC)c(I)c1` [Amiodarone hydrochloride, amiodarone hydrochloride], the LDH values result reads like this: (1.8 mg/mL) “about 700 IU/L”; (50 mg/mL) “about 8000 IU/L”.
